According to ChEMBL document CHEMBL4831531, “Mangostanin Derivatives as Novel and Orally Active Phosphodiesterase 4 Inhibitors for the Treatment of Idiopathic Pulmonary Fibrosis with Improved Safety” (J Med Chem, 2021):
Calls of active or inactive are those of the source. The calls are words filed in the database; no cut-off is given here.

Target: 3',5'-cyclic-AMP phosphodiesterase 4D (Homo sapiens, UniProt Q08499)
Assay: Inhibition of PDE4D2 (86-413) (unknown origin) expressed in Escherichia coli BL21 assessed as using [3H]-cAMP as substrate measured for 15 mins by liquid scintillation counting analysis
Conditions: not given

3',5'-cyclic-AMP phosphodiesterase 4D, sequence (Q08499 whole entry): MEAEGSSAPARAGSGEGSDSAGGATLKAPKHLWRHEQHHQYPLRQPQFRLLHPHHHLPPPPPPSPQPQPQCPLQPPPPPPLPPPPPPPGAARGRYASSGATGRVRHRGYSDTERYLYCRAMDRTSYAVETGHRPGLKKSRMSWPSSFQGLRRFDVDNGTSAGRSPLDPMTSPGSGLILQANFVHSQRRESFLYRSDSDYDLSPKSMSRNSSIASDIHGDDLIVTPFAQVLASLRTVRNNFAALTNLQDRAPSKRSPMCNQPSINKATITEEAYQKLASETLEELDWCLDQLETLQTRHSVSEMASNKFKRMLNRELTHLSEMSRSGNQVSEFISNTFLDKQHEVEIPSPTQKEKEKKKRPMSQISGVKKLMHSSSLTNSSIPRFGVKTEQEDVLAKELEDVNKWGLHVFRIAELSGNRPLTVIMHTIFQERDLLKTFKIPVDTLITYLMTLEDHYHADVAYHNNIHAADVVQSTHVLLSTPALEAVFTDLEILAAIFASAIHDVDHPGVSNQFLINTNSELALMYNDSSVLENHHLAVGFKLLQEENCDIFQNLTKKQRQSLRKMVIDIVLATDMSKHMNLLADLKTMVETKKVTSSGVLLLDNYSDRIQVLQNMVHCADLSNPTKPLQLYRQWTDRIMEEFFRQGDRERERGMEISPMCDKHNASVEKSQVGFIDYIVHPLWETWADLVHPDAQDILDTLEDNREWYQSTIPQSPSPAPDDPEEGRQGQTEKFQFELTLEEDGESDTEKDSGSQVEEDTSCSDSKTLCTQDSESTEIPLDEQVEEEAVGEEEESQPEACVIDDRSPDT

| SMILES | IC50 [nM] |
| --- | --- |
| COc1cc2oc3cc4c(c(OC/C=C/C(=O)O)c3c(=O)c2c(CC=C(C)C)c1OC)C=CC(C)(C)O4 | 30 |
| COc1c(OCc2ccc(F)cc2)cc2oc3cc4c(c(OC/C=C\C(=O)O)c3c(=O)c2c1CC=C(C)C)C=CC(C)(C)O4 | 20 |
| COc1c(OC(C)C)cc2oc3cc4c(c(OC/C=C/C(=O)O)c3c(=O)c2c1CC=C(C)C)C=CC(C)(C)O4 | 31 |
| COc1c(OCCCCCCC(=O)O)cc2oc3cc4c(c(O)c3c(=O)c2c1CC=C(C)C)C=CC(C)(C)O4 | 19 |
| COc1c(OCc2ccc(S(C)(=O)=O)cc2)cc2oc3cc4c(c(OC/C=C/C(=O)O)c3c(=O)c2c1CC=C(C)C)C=CC(C)(C)O4 | 18 |
| COc1c(O)cc2oc3cc4c(c(OCCCCCCC(=O)O)c3c(=O)c2c1CC=C(C)C)C=CC(C)(C)O4 | 300 |
| COc1c(OCc2ccccc2)cc2oc3cc4c(c(OC/C=C/C(=O)O)c3c(=O)c2c1CC=C(C)C)C=CC(C)(C)O4 | 24 |
| COc1cccc(COc2cc3oc4cc5c(c(OC/C=C/C(=O)O)c4c(=O)c3c(CC=C(C)C)c2OC)C=CC(C)(C)O5)c1 | 16 |
| COc1c(O)cc2oc3cc4c(c(OCCCCC(=O)O)c3c(=O)c2c1CC=C(C)C)C=CC(C)(C)O4 | 24 |
| COc1c(OCc2cccc(C)c2)cc2oc3cc4c(c(OC/C=C/C(=O)O)c3c(=O)c2c1CC=C(C)C)C=CC(C)(C)O4 | > 1000 |
| COc1c(O)cc2oc3cc4c(c(OC/C=C/C(=O)O)c3c(=O)c2c1CC=C(C)C)C=CC(C)(C)O4 | 494 |
| CCOC(=O)/C=C/COc1c2c(cc3oc4cc(OCc5cccc(F)c5)c(OC)c(CC=C(C)C)c4c(=O)c13)OC(C)(C)C=C2 | 6.5 |
| COc1c(OCc2ccc(F)cc2)cc2oc3cc4c(c(OCCCC(=O)O)c3c(=O)c2c1CC=C(C)C)C=CC(C)(C)O4 | 4.2 |
| COc1c(OCc2cccc(F)c2)cc2oc3cc4c(c(OC/C=C/C(=O)O)c3c(=O)c2c1CC=C(C)C)C=CC(C)(C)O4 | > 1000 |
| CCOC(=O)/C=C/COc1c2c(cc3oc4cc(OCc5ccc(F)cc5)c(OC)c(CC=C(C)C)c4c(=O)c13)OC(C)(C)C=C2 | 24 |
| COc1c(O)cc2oc3cc4c(c(OCCCCCC(=O)O)c3c(=O)c2c1CC=C(C)C)C=CC(C)(C)O4 | 25 |
| CCOc1cc2oc3cc4c(c(OC/C=C/C(=O)O)c3c(=O)c2c(CC=C(C)C)c1OC)C=CC(C)(C)O4 | 48 |
| COc1c(O)cc2oc3cc4c(c(OCCCC(=O)O)c3c(=O)c2c1CC=C(C)C)C=CC(C)(C)O4 | > 1000 |
| COc1c(O)cc2oc3cc4c(c(OCC(=O)O)c3c(=O)c2c1CC=C(C)C)C=CC(C)(C)O4 | 17 |

Tested on: not listed separately
Assay: Toxicity in dog assessed as emesis at 1 mg/kg, po
Type: organism-based, Canis lupus familiaris
Conditions: in vivo

| SMILES | Activity |
| --- | --- |
| COc1ccc(C2CNC(=O)C2)cc1OC1CCCC1 (stereo not given) [ROLIPRAM] | Toxic |

Tested on: Rattus norvegicus
Assay: Anti-idiopathic pulmonary fibrotic activity in bleomycin-induced Sprague-Dawley rat model assessed as prevention of structural damage of lungs at 150 mg/kg, po treated for 28 consecutive days by Hematoxylin and eosin staining based assay relative to control
Type: functional, organism-based
Conditions: not given

| SMILES | Activity |
| --- | --- |
| Cc1ccc(=O)n(-c2ccccc2)c1 [PIRFENIDONE] | Active |

Tested on: Rattus norvegicus
Assay: Anti-idiopathic pulmonary fibrotic activity in bleomycin-induced Sprague-Dawley rat model assessed as inhibition of collagen deposition around trachea and cell hyperplasia at 150 mg/kg, po treated for 28 consecutive days by Hematoxylin and eosin staining based assay relative to control
Type: functional
Conditions: not given

| SMILES | inhibition in vivo at 150 mg/kg [%] |
| --- | --- |
| Cc1ccc(=O)n(-c2ccccc2)c1 [PIRFENIDONE] | 100 |

Tested on: Rattus norvegicus
Assay: Anti-idiopathic pulmonary fibrotic activity in bleomycin-induced Sprague-Dawley rat model assessed as decrease in alpha-smooth muscle actin protein expression of lungs at 150 mg/kg, po treated for 28 consecutive days by Western blot analysis
Type: functional, organism-based
Conditions: not given

| SMILES | Activity |
| --- | --- |
| Cc1ccc(=O)n(-c2ccccc2)c1 [PIRFENIDONE] | Active |

Tested on: Rattus norvegicus
Assay: Anti-idiopathic pulmonary fibrotic activity in bleomycin-induced Sprague-Dawley rat model assessed as decrease in fibronectin expression of lungs at 150 mg/kg, po treated for 28 consecutive days by Western blot analysis
Type: functional, organism-based
Conditions: not given

| SMILES | Activity |
| --- | --- |
| Cc1ccc(=O)n(-c2ccccc2)c1 [PIRFENIDONE] | Active |

Tested on: Rattus norvegicus
Assay: Anti-inflammatory activity in bleomycin-induced idiopathic pulmonary fibrotic activity Sprague-Dawley rat model assessed as decrease in NO production in lungs at 150 mg/kg, po treated for 28 consecutive days
Type: functional, organism-based
Conditions: not given

| SMILES | Activity |
| --- | --- |
| Cc1ccc(=O)n(-c2ccccc2)c1 [PIRFENIDONE] | Active |
